Patent US20240360186A1, “Treatment Of Integrin-Related Disorders With Stapled Peptides” (Institute For Cancer Research d/b/a The Research Institute …, priority 2021, published 2024)
Values belong to the molecule of their own block, whether it stands above or below them. Bridge positions count the residues as written; N and C are the ends. Square brackets hold non-standard residues; d marks the D form. Ends that are not written are not given here. Peptide text beside a SMILES is read from it. S5 = C=CCCC[C@](C)(N)C(=O)O

How the values were obtained:
HeLa cells = assay: Cell toxicity assay, HeLa; type: cell-based; settings: 40 μM, treated one hour then washed away, viability at 24 and 48 hours
Procedure: (§1) The cell toxicity of the peptides was then examined. HEK, MCF-7, and HeLa were used. Cells were treated with S-TBS 40 μm for one hour. The S-TBS was then washed away and the viability measured at 24 and 48 hours. No impact on HEK, MCF-7, and HeLa cell growth was observed.

CHO-A5 cells = assay: Cell permeability assay (flow cytometry uptake of fluorophore-labelled peptide); type: in vitro ADME; settings: CHO-A5 cells, lower doses, flow cytometry permeability index, fluorophore-labelled peptides
Procedure: Assessing membrane permeability: CHO-A5 cells were treated with FAM-labelled WT-TBS (1, 10, and 50 μM), or with FITC-labelled stapled-TBS (1, 10, and 50 μM), and incubated for 30 minutes at 37° C. The cells were washed twice with phosphate-buffered saline (PBS), harvested in trypsin-EDTA, and centrifuged at 2,000 rpm for 5 minutes. The cells were resuspended in PBS and quantified with an LSR flow cytometer using 30,000 cells per measurement.
A common challenge for peptidomimetic drugs that target intracellular proteins is the poor cell membrane permeability. To assess the effect of the C8 staple on cell permeability, FITC-labeled S-TBS were incubated with CHO cells at various concentration and examined S-TBS uptake by flow cytometry. […] The assay was then performed using lower doses of peptides and quantified the signals for statistical analyses. […] In contrast, TBS requires a concentration of at least 5 μM for cell uptake (FIG. 3, Panel B).
Cell permeability assay: CHO-A5 cells were plated in 6-well dishes, and then treated with fluorophore labeled TBS or S-TBS peptides at indicated concentrations for 30 minutes at 37° C. The cells were then washed twice with phosphate-buffered saline (PBS), detached by adding a mixture of trypsin and […] (“trypsin-EDTA”) and harvested by spinning at 2,000 rpm for 5 minutes. The cells were resuspended in PBS and quantified with an LSR flow cytometer (525/50 filter, 488 nm laser) using 30,000 cells per measurement.

HEK-293 cells = assay: Cell toxicity assay, HEK-293; type: cell-based; settings: 40 μM, treated one hour then washed away, viability at 24 and 48 hours
Procedure: as §1

integrin αIIbβ3 [1] = assay: Integrin activation assay, wild-type talin head domain; type: cell-based; settings: CHO-A5 cells expressing GFP-tagged wild-type talin head domain; TBS 100 μM, S-TBS 10 and 100 μM, 30 minutes; PAC1 flow cytometry
Procedure: (§2) Assessing integrin activation: CHO-A5 cells were transfected with GFP-tagged talin-head domain (residues 1-430, WT or W359A) and incubated for 24 hours at 37° C. The cells were subsequently treated with WT-TBS at 100 μM or Staple-TBS (at 10 and 100 μM) for 30 minutes at 37° C. and washed twice with PBS, harvested in trypsin-EDTA, and centrifuged at 2,000 rpm for 5 minutes. The cells were incubated in Tyrode's buffer (136.9 mM NaCl, 10 mM HEPES, 5.5 mM glucose, 11.9 mM NaHCO3, 2.7 mM KCl, 0.5 mM CaCl2), 1.5 mM MgCl2, and 0.4 mM NaH2PO4, pH 7.4) containing PAC1 antibody for 1 hour at 30° C. and then stained with Alexa 647 (goat anti-mouse IgM) for 30 minutes at RT. The cells were quantified with an LSR flow cytometer using 30,000 cells per measurement.
(§3) The effect of S-TBS on talin-induced activation of integrin αIIbβ3 was examined. CHO-A5 cells that stably express integrin αIIbβ3 were transfected with a green fluorescent protein-tagged talin head domain, treated with S-TBS or TBS, and then subjected flow cytometry analysis for integrin αIIbβ3 activity. […]
(§4) Integrin activation assays: CHO-A5 cells were transfected with talin-head domain, wild-type or W359A, and incubated for 24 hours at 37° C. […] The cells were quantified with a Beckton, Dickenson & Co. Biosciences LSR flow cytometer (660/20 filter, 640 nm laser) using 30,000 cells per measurement.

[2] = system: β3-THD (integrin β3-talin head domain fusion protein); assay: GST pull-down, β3-THD chimera; type: binding; settings: GST-fused peptide on glutathione beads, His-tagged talin protein, Western blot
From the text: The interaction of the TBS segment of RIAM with the talin head domain is compatible with the integrin-β:talin interaction (see, Yang et al., Nat. Commun., 2014, 5, 5880). To test this proposed synergistic interaction, a chimeric protein was constructed by fusing a integrin 03 segment to talin head domain (β3-THD) and assessed its interaction with TBS. […] The T14E mutation in TBS is expected to generate anew salt-bridge interaction with talin through the Arg358 residue, which is essential for the interaction of talin and integrin-β3 (FIG. 2, Panel D; see Barsukov et al., J. Biol. Chem., 2003, 278, 31202-09).
Plasmid construction, protein purification, and GST pull-down: Talin R7R8, talin head domain, β3-THD chimera, and GST-TBS were expressed and purified as described previously described (see, Zhang et al., Proc. Natl. Acad. Sci. U.S.A., 2020, 117, 32402-12; and Chang et al., 2014). Point mutations were constructed using a site-directed mutagenesis method. […] The proteins were resolved by SDS-PAGE and detected by Coomassie staining or Western blotting. […] The blots were visualized with the SuperSignal West Pico Chemiluminescent Substrate (Thermo Scientific) and detected using the FluorChem E imager (ProteinSimple).

integrin αIIbβ3 [3] = assay: Integrin activation assay, inactive talin head mutant THD-W359A; type: cell-based; settings: CHO-A5 cells transfected with THD-W359A; TBS 100 μM, S-TBS 10 and 100 μM; PAC1 flow cytometry
Procedure: as §2, §3, §4

MCF-7 cells = assay: Cell toxicity assay, MCF-7; type: cell-based; settings: 40 μM, treated one hour then washed away, viability at 24 and 48 hours
Procedure: as §1

[4] = biological target: T1, Talin head domain (residues 1-430) (UniProt P26039 1-430); assay: fluorescence polarization; Kd of S-TBS against Kd of TBS
T1 construct: range 1-430; also called THD
T1 sequence (P26039 1-430 limits assumed): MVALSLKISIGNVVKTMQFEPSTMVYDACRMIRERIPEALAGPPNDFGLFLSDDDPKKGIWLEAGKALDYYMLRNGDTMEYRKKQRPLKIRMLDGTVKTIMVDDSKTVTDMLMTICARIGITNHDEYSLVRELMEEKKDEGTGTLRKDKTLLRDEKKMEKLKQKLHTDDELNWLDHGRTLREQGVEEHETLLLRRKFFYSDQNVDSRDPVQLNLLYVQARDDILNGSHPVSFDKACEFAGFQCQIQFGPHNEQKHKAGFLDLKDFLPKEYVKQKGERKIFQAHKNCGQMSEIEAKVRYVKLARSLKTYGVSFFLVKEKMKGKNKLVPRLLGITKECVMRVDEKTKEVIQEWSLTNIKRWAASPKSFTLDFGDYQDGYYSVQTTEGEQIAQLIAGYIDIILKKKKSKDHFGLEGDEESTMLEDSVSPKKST
Procedure: (§5) To assess the binding affinities of S-TBS with talin, the Kd of TBS and S-TBS peptides with talin rod R7R8 and talin head (residues 1-430) were measured using fluorophore-labeled peptides and recombinantly expressed, purified talin proteins by FP assays. […] This gain of affinity may be attributed to the C8 staple as it stabilizes the helical structure of TBS, and the enhanced hydrophobic interaction between S-TBS and talin rod. The enhanced binding of S-TBS to talin further validates the design strategy of using stapled peptides as a potent competitive inhibitor.
(§6) Fluorescent Polarization: Mixtures were prepared of purified talin proteins at a series concentration (R7R8: 0.2 μM to 20 μM; THD/b3-THD: 5 μM to 100 μM), or buffer only, with 20 nM FITC-labeled S-TBS (New England Peptide) in a buffer containing 20 mM HEPES, pH 7.5, 100 mM NaCl, and 2 mM DTT. After five minutes of incubation, 20 μl of the reaction mix was added to individual wells of a 384-well assay plate (Corning) and then measured fluorescence polarization at room temperature using a plate reader. A […] as emission polarization filters. FP signals were normalized against buffer-only background and then fit to a single-site (saturating) binding model using SigmaPlot (Systat Software).

Talin rod R7R8 domains [5] = biological target: T2, Talin rod R7R8 domains (UniProt P26039 1357-1653, limits assumed); assay: as above
T2 construct: domain: R7R8; also called talin R7R8; talin rod double-domain R7R8
T2 sequence (P26039 1357-1653 limits assumed): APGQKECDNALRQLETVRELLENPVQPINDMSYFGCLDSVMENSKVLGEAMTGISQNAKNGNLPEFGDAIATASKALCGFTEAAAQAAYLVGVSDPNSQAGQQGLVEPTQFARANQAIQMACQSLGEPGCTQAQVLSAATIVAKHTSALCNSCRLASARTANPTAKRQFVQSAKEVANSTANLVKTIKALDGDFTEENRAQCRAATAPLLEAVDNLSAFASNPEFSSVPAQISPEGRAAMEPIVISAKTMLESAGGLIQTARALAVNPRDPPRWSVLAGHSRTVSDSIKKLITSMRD
Procedure: as §5, §6

Talin rod R7R8 domains [6] = biological target: T2, Talin rod R7R8 domains; assay: fluorescence polarization; fluorophore-labelled peptide titrated with talin R7R8
Procedure: as §5, §6

[7] = biological target: T1, Talin head domain (residues 1-430); assay: fluorescence polarization; fluorophore-labelled peptide titrated with talin head (residues 1-430)
Procedure: as §5, §6

[8] = biological target: T1, Talin head domain (residues 1-430); assay: fluorescence polarization, as the legend of FIG. 9 Panel B prints it (Table 2 prints 116)
Procedure: as §5, §6

[9] = biological target: T1, Talin head domain (residues 1-430); assay: fluorescence polarization; fluorophore-labelled peptide, purified talin protein titrated
Procedure: as §5, §6

Talin rod R7R8 domains [10] = biological target: T2, Talin rod R7R8 domains; assay: as above
Procedure: as §5, §6

- concentration giving significant cell uptake (CHO-A5 cells): at least 5 μM
Molecule: CC[C@H](C)[C@H](NC(=O)[C@H](CC(=O)O)NC(=O)[C@H](CCC(=O)O)NC(=O)[C@@H](N)CC(N)=O)C(=O)N[C@@H](CC(=O)O)C(=O)N[C@@H](CCC(N)=O)C(=O)N[C@@H](CCSC)C(=O)N[C@@H](Cc1ccccc1)C(=O)N[C@@H](CO)C(=O)N[C@H](C(=O)N[C@@H](CC(C)C)C(=O)N[C@@H](CC(C)C)C(=O)NCC(=O)N[C@@H](CCC(=O)O)C(=O)N[C@@H](CCSC)C(=O)N[C@@H](CC(=O)O)C(=O)N[C@@H](CC(C)C)C(=O)N[C@@H](CC(C)C)C(=O)N[C@H](C(=O)N[C@@H](CCC(N)=O)C(=O)N[C@@H](CO)C(=O)O)[C@@H](C)O)[C@@H](C)O [TBS, reference compound] (H-NEDIDQMFSTLLGEMDLLTQS-OH; N-terminus and C-terminus assumed)
- cell toxicity (viability / cell growth), HeLa (HeLa cells): minimal cell toxicity
- cell toxicity (viability / cell growth), HEK (HEK-293 cells): minimal cell toxicity
- integrin αIIbβ3 activity (talin-induced activation) (integrin αIIbβ3 [1]): no inhibitory effect
- interaction with β3-THD (pull-down) [2]: much more strongly than with THD alone
- integrin αIIbβ3 activity with inactive talin head THD-W359A (integrin αIIbβ3 [3]): No inhibitory effect
- cell toxicity (viability / cell growth), MCF-7 (MCF-7 cells): minimal cell toxicity

- fold stronger binding than TBS [4]: 3.5 fold
- fold stronger binding than TBS (Talin rod R7R8 domains [5]): 6 fold
- EC50 (read off the curve) (Talin rod R7R8 domains [6]): ~2 µM
- EC50 (read off the curve) [7]: 10 to 20 µM
B1: S-TBS, stapled talin-binding site peptide (Stp(15,19))H2N-NEDIDQMFSTLLGE(S5)DLL(S5)QS-OH (peptide)
peptide: H-NEDIDQMFSTLLGE[S5]DLL[S5]QS-OH
modifications: staple 15-19; also: FITC label in some assays, site not given here
notes: X stands for the non-natural stapling residue (S5); also called stapled TBS; stapled-TBS

- Kd [8]: 106 µM
- Kd [9]: 116 µM
- Kd (Talin rod R7R8 domains [10]): 17.7 µM
B2: TBS peptide (unstapled talin-binding site peptide of RIAM) (peptide)
peptide: NEDIDQMFSTLLGEMDLLTQS
modifications: also: fluorescein (6-FAM) label in some assays
notes: also called WT-TBS; unstapled TBS
